Earlier results on four molecules are cited in patent US10562850B2, “Human plasma kallikrein inhibitors” (priority 2015, dated 2020).

Details in all cases: cited from earlier work
The subject of data set [1] is patients with hereditary angioedema (HAE).
The test system of the next data set is rat models of arthritis.
Data set [2] relates to animal model of ischemic stroke.
In the next data set the test system is sepsis patients.
Data set [3] relates to mouse model of middle cerebral artery occlusion (MCAO).

Regarding `NC(N)=NCCC[C@@H](N)C(=O)N[C@@H](CCCN=C(N)N)C(=O)N1CCC[C@H]1C(=O)N1C[C@H](O)C[C@H]1C(=O)NCC(=O)N[C@@H](Cc1cccs1)C(=O)N[C@@H](CO)C(=O)N1Cc2ccccc2C[C@@H]1C(=O)N1[C@H](C(=O)N[C@@H](CCCN=C(N)N)C(=O)O)C[C@@H]2CCCC[C@@H]21` [Icatibant], the “treating HAE” value in data set [1] was “effective in treating HAE”.

In the case of `Cl.NCC1CCC(C(=O)N[C@@H](Cc2ccccc2)C(=O)Nc2ccc(CC(=O)O)cc2)CC1` (stereo partly drawn) [PKSI-527], in the data set with rat models of arthritis, the joint swelling result is “reduce joint swelling”.

Turning to ecallantide [DX-88], the “brain edema, infarct volume, and neurological deficits” value in data set [2] was “reduced brain edema, infarct volume, and neurological deficits”. Also, the “edema in patients with hereditary angioedema (HAE)” value in data set [1] was “alleviates edema”.

B1: C1-inhibitor: a physiological inhibitor (C1-inhibitor) (protein, UniProt P05155 23-500, looked up)
Plasma protease C1 inhibitor: NPNATSSSSQDPESLQDRGEGKVATTVISKMLFVEPILEVSSLPTTNSTTNSATKITANTTDEPTTQPTTEPTTQPTIQPTQPTTQLPTDSPTQPTTGSFCPGPVTLCSDLESHSTEAVLGDALVDFSLKLYHAFSAMKKVETNMAFSPFSIASLLTQVLLGAGENTKTNLESILSYPKDFTCVHQALKGFTTKGVTSVSQIFHSPDLAIRDTFVNASRTLYSSSPRVLSNNSDANLELINTWVAKNTNNKISRLLDSLPSDTRLVLLNAIYLSAKWKTTFDPKKTRMEPFHFKNSVIKVPMMNSKKYPVAHFIDQTLKAKVGQLQLSHNLSLVILVPQNLKHRLEDMEQALSPSVFKAIMEKLEMSKFQPTLLTLPRIKVTTSQDMLSIMEKLEFFDFSYDLNLCGLTEDPDLQVSAMQHQTVLELTETGVEAAAASAISVARTLLVFEVQQPFLFVLWDQQHKFPVFMGRVYDPRA
For the molecule B1, the “clinical outcome in sepsis patients” value in the data set with sepsis patients is “Clinical improvement was observed”. The infarct size entry in data set [3] is “reduced infarct size”.
